Measurements published in patent publication US20040152735A1, “NO-synthase inhibitors comprising N,N'-bis(2-pyridyl)methyl-N,N'-bis(3,4,5-trimethoxybenzyl) ethylenediamine” (SOCIETE L'OREAL, S.A., priority 2001, published 2004).

Target: T1, inducible NO-synthase (NO-synthase 2) (Homo sapiens, UniProt P35228)
T1 construct: positive control (induction of the enzyme): mixtures of interferon-(1000 U/ml) and of interleukin 1-(100 U/ml); endogenous in cells; 267(30), 21277-21280, 1992
Assay: Inhibition of inducible NO-synthase (test of Heck et al.): nitrite/nitrate measured after stimulating NO-synthase 2 with interferon and interleukin 1
Assay type: cell-based
Experimental: The activity of N,N′-bis(2-pyridyl)methyl-N,N′-bis(3,4,5-trimethoxybenzyl)ethylenediamine on inducible NO-synthase was evaluated in the test described by Heck et al., (J.B.C., Vol. 267, No. 30, 21277-21280, Oct. 25, 1992).
The object of this test is to show the reduction in the concentration of nitrate and nitrite, ultimately, after stimulating NO-synthase 2.
The following controls were introduced into the tests:
A: positive control (induction of the enzyme): mixtures of interferon-(1000 U/ml) and of interleukin 1-(100 U/ml);
To determine the activity of the test product, the amount of stable NO reaction products (nitrites and nitrates) is measured using the “nitric calorimetric assay” kit marketed by Boehringer under the reference 1756.28.
N,N′-bis(2-pyridyl)methyl-N,N′-bis(3,4,5-trimethoxybenzyl) ethylenediamine was tested at concentrations of 10 μM, 50 μM and 100 μM in ethanol.

T1 sequence (P35228 whole entry, species assumed): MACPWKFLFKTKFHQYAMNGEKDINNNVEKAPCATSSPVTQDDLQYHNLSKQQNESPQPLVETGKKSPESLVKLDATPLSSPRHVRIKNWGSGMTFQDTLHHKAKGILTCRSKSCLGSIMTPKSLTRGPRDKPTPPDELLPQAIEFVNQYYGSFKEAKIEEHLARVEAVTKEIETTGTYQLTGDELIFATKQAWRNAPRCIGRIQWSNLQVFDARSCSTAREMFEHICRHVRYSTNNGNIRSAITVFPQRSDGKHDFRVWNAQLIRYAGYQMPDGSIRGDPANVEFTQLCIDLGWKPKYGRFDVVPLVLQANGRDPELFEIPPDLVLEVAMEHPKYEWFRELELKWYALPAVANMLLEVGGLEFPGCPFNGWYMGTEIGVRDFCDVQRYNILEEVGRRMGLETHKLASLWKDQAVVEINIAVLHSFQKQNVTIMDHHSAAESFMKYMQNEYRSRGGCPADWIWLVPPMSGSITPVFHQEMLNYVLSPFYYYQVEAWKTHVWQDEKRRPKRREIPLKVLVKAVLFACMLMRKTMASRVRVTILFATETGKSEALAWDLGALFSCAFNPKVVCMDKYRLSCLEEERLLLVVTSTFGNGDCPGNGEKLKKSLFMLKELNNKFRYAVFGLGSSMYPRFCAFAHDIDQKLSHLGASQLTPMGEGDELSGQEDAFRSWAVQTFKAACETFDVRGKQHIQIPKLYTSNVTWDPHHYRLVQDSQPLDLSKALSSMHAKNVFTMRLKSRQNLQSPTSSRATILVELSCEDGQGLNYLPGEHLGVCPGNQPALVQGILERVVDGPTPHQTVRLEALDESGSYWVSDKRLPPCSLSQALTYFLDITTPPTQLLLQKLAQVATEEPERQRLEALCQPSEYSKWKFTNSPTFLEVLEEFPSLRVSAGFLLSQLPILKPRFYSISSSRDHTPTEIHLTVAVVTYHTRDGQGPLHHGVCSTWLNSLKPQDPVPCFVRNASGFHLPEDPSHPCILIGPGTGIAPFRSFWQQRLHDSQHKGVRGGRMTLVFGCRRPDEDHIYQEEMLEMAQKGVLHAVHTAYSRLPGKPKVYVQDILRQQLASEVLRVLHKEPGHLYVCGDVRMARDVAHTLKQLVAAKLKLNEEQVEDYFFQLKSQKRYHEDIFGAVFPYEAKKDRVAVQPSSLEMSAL

inhibition at 10 µM (10 μM in ethanol, nitrites and nitrates after induction with interferon (1000 U/ml) and interleukin 1 (100 U/ml)): 18.8% | inhibition at 50 µM (50 μM in ethanol, nitrites and nitrates after induction with interferon (1000 U/ml) and interleukin 1 (100 U/ml)): 48.3% | inhibition at 100 µM (100 μM in ethanol, nitrites and nitrates after induction with interferon (1000 U/ml) and interleukin 1 (100 U/ml)): 62%
SMILES: COc1cc(CN(CCN(Cc2cc(OC)c(OC)c(OC)c2)Cc2ccccn2)Cc2ccccn2)cc(OC)c1OC [N,N′-bis(2-pyridyl)methyl-N,N′-bis(3,4,5-trimethoxybenzyl)ethylenediamine]
effect on inducible NO-synthase (in words) (conclusion from the test at 10-100 μM): has an inhibitory effect on inducible NO-synthase
